Data: patent publication US4737494A, “1,3-dithiole derivatives and pharmaceutical compositions” (priority 1984, dated 1988)

Test system: acute liver injury induced by carbon tetrachloride
Assay: Protective effect on acute liver injury induced by carbon tetrachloride (mice, oral): plasma GPT activity and BSP retention
Assay type: in vivo, mice (ddY, male)
Details: 6 h before CCl4 (0.05 ml/kg p.o.); for GPT activity: plasma; for Retained BSP: plasma 30 min after BSP 75 mg/kg i.v.
Experimental: 1. Protective Effect on Acute Liver Injury Induced by Carbon Tetrachloride
A test compound was dissolved or suspended in olive oil and administered orally to mice (ddY mice, .male., 23±2 g, n=5). After 6 hours, carbon tetrachloride (0.05 ml/kg) was administered orally. 24 Hours after the administration of carbon tetrachloride, BSP (sodium sulfobromophthalein; 75 mg/kg) was administered intravenously. Thirty minutes later, the cardiac blood was collected, and GPT (glutamic-pyruvic transaminase) activity and the retention rate of BSP in the plasma were measured.

[O-][Cl+3]([O-])([O-])[O-].c1ccc(C2CCC[N+]2=c2sccs2)cc1 (stereo not shown) [Compound No. 46, 1-(1,3-dithiol-2-ylidene)-2-phenylpyrrolidinium perchlorate]
GPT activity (1 mg/kg): 3978 ± 627 Karmen units
Retained BSP (1 mg/kg): 101 ± 17.4 µg/mL
GPT activity (5 mg/kg): 1040 ± 121 Karmen units
Retained BSP (5 mg/kg): 69 ± 7.1 µg/mL

[O-][Cl+3]([O-])([O-])[O-].c1csc(=[N+]2CCCCC2)s1 [Compound No. 34, 1-(1,3-dithiol-2-ylidene)piperidinium perchlorate]
GPT activity (1 mg/kg): 512 ± 205 Karmen units
Retained BSP (1 mg/kg): 26.5 ± 8.0 µg/mL
GPT activity (5 mg/kg): 116 ± 39 Karmen units
Retained BSP (5 mg/kg): 15.6 ± 3.0 µg/mL

OC1CC[N+](=c2sccs2)CC1.[O-][Cl+3]([O-])([O-])[O-] (stereo not shown) [Compound No. 60, 1-(1,3-dithiol-2-ylidene)-4-hydroxypiperidinium perchlorate]
GPT activity (1 mg/kg): 1321 ± 197 Karmen units
Retained BSP (1 mg/kg): 63.4 ± 10.9 µg/mL
GPT activity (5 mg/kg): 131 ± 10 Karmen units
Retained BSP (5 mg/kg): 19.1 ± 2.1 µg/mL

Cc1cccc([N+](C)=c2sccs2)c1.[O-][Cl+3]([O-])([O-])[O-] [Compound No. 9, N-(1,3-dithiol-2-ylidene)-N-methyl-N-(m-tolyl)ammonium perchlorate]
GPT activity (1 mg/kg): 2250 ± 325 Karmen units
Retained BSP (1 mg/kg): 73.1 ± 14.7 µg/mL
GPT activity (5 mg/kg): 191 ± 71 Karmen units
Retained BSP (5 mg/kg): 21.4 ± 2.1 µg/mL

CC(C)CC(C(=O)OC(C)C)[N+](C)=c1sccs1.[O-][Cl+3]([O-])([O-])[O-] (stereo not shown) [Compound No. 18, N-(1,3-dithiol-2-ylidene)-N-methyl-N-(3-methyl-1-isopropoxycarbonylbutyl)ammonium perchlorate]
GPT activity (1 mg/kg): 4100 ± 615 Karmen units
Retained BSP (1 mg/kg): 106.9 ± 17.5 µg/mL
GPT activity (5 mg/kg): 3250 ± 365 Karmen units
Retained BSP (5 mg/kg): 44.1 ± 5.2 µg/mL

O=C(O)C1CC[N+](=c2sccs2)CC1.[O-][Cl+3]([O-])([O-])[O-] (stereo not shown) [Compound No. 57, 1-(1,3-dithiol-2-ylidene)-4-carboxypiperidinium perchlorate]
GPT activity (1 mg/kg): 3735 ± 374 Karmen units
Retained BSP (1 mg/kg): 101.1 ± 20.0 µg/mL
GPT activity (5 mg/kg): 2922 ± 247 Karmen units
Retained BSP (5 mg/kg): 90.1 ± 14.7 µg/mL

C=CC[N+](CC=C)=c1sccs1.[O-][Cl+3]([O-])([O-])[O-] [Compound No. 12, N-(1,3-dithiol-2-ylidene)-N,N-diallylammonium perchlorate]
GPT activity (1 mg/kg): 5438 ± 401 Karmen units
Retained BSP (1 mg/kg): 109.3 ± 14.8 µg/mL
GPT activity (5 mg/kg): 1241 ± 103 Karmen units
Retained BSP (5 mg/kg): 25.4 ± 5.0 µg/mL

COC(=O)CC(C(=O)OC)[N+](C)=c1sccs1.[O-][Cl+3]([O-])([O-])[O-] (stereo not shown) [Compound No. 17, N-(1,3-dithiol-2-ylidene)-N-methyl-N-(1,2-dimethoxycarbonylethyl)ammonium perchlorate]
GPT activity (1 mg/kg): 4760 ± 298 Karmen units
Retained BSP (1 mg/kg): 135 ± 8.9 µg/mL
GPT activity (5 mg/kg): 3883 ± 324 Karmen units
Retained BSP (5 mg/kg): 86 ± 11.1 µg/mL

CC1CC(C)C[N+](=c2sccs2)C1.[I-] (stereo not shown) [Compound No. 67, 1-(1,3-dithiol-2-ylidene)-3,5-dimethylpiperidinium iodide]
GPT activity (1 mg/kg): 2718 ± 431 Karmen units
Retained BSP (1 mg/kg): 111.4 ± 17.1 µg/mL
GPT activity (5 mg/kg): 372 ± 27 Karmen units
Retained BSP (5 mg/kg): 21.3 ± 4.0 µg/mL

N#CC1CC[N+](=c2sccs2)CC1.[O-][Cl+3]([O-])([O-])[O-] (stereo not shown) [Compound No. 59, 1-(1,3-dithiol-2-ylidene)-4-cyanopiperidinium perchlorate]
GPT activity (1 mg/kg): 2991 ± 382 Karmen units
Retained BSP (1 mg/kg): 110.1 ± 27.3 µg/mL
GPT activity (5 mg/kg): 763 ± 118 Karmen units
Retained BSP (5 mg/kg): 49.1 ± 8.1 µg/mL

CC1CCC[N+](=c2sccs2)C1.[O-][Cl+3]([O-])([O-])[O-] (stereo not shown) [Compound No. 52, 1-(1,3-dithiol-2-ylidene)-3-methylpiperidinium perchlorate]
GPT activity (1 mg/kg): 2391 ± 325 Karmen units
Retained BSP (1 mg/kg): 87.1 ± 13.4 µg/mL
GPT activity (5 mg/kg): 138 ± 18 Karmen units
Retained BSP (5 mg/kg): 17.8 ± 4.9 µg/mL

[O-][Cl+3]([O-])([O-])[O-].c1csc(=[N+]2CCOCC2)s1 [Compound No. 26, 4-(1,3-dithiol-2-ylidene)morpholinium perchlorate]
GPT activity (1 mg/kg): 483 ± 178 Karmen units
Retained BSP (1 mg/kg): 21.6 ± 2.7 µg/mL
GPT activity (5 mg/kg): 113 ± 32 Karmen units
Retained BSP (5 mg/kg): 13.8 ± 2.5 µg/mL

[O-][Cl+3]([O-])([O-])[O-].c1ccc(C[N+](Cc2ccccc2)=c2sccs2)cc1 [Compound No. 16, N-(1,3-dithiol-2-ylidene)-N,N-dibenzylammonium perchlorate]
GPT activity (1 mg/kg): 4121 ± 311 Karmen units
Retained BSP (1 mg/kg): 107.4 ± 13.9 µg/mL
GPT activity (5 mg/kg): 1017 ± 37 Karmen units
Retained BSP (5 mg/kg): 21.8 ± 6.0 µg/mL

CC1CC[N+](=c2sccs2)CC1.[O-][Cl+3]([O-])([O-])[O-] (stereo not shown) [Compound No. 53, 1-(1,3-dithiol-2-ylidene)-4-methylpiperidinium perchlorate]
GPT activity (1 mg/kg): 1843 ± 162 Karmen units
Retained BSP (1 mg/kg): 70.0 ± 19.3 µg/mL
GPT activity (5 mg/kg): 193 ± 81 Karmen units
Retained BSP (5 mg/kg): 16.9 ± 3.1 µg/mL

CCOC(=O)C1CCC[N+]1=c1sccs1.[Cl-] (stereo not shown) [Compound No. 42, 1-(1,3-dithiol-2-ylidene)-2-ethoxycarbonyl pyrrolidinium chloride]
GPT activity (1 mg/kg): 1673 ± 214 Karmen units
Retained BSP (1 mg/kg): 53.1 ± 6.3 µg/mL
GPT activity (5 mg/kg): 231 ± 43 Karmen units
Retained BSP (5 mg/kg): 21.4 ± 3.5 µg/mL

CNC(=O)C[N+](C)=c1sccs1 [Compound No. 3, N-(1,3-dithiol-2-ylidene)-N-methyl-N-(N'-methylcarbamoylmethyl)ammonium perchlorate]
GPT activity (1 mg/kg): 3740 ± 430 Karmen units
Retained BSP (1 mg/kg): 67.1 ± 14.3 µg/mL
GPT activity (5 mg/kg): 541 ± 101 Karmen units
Retained BSP (5 mg/kg): 27.1 ± 10.1 µg/mL

C[N+](c1ccccc1)=c1sccs1.[O-][Cl+3]([O-])([O-])[O-] [Compound No. 8, N-(1,3-dithiol-2-ylidene)-N-methyl-N-phenylammonium perchlorate]
GPT activity (1 mg/kg): 2394 ± 193 Karmen units
Retained BSP (1 mg/kg): 39.3 ± 10.7 µg/mL
GPT activity (5 mg/kg): 117 ± 28 Karmen units
Retained BSP (5 mg/kg): 11.6 ± 1.5 µg/mL

[O-][Cl+3]([O-])([O-])[O-].c1csc(=[N+]2CCCC2)s1 [Compound No. 35, 1-(1,3-dithiol-2-ylidene)pyrrolidinium perchlorate]
GPT activity (1 mg/kg): 4239 ± 816 Karmen units
Retained BSP (1 mg/kg): 101.2 ± 22.6 µg/mL
GPT activity (5 mg/kg): 2472 ± 820 Karmen units
Retained BSP (5 mg/kg): 35.8 ± 12.4 µg/mL

CCOC(=O)C[N+](C)=c1sccs1.[O-][Cl+3]([O-])([O-])[O-] [Compound No. 1, N-(1,3-dithiol-2-ylidene)-N-methyl-N-ethoxycarbonylmethylammonium perchlorate]
GPT activity (1 mg/kg): 3280 ± 399 Karmen units
Retained BSP (1 mg/kg): 53.2 ± 11.4 µg/mL
GPT activity (5 mg/kg): 183 ± 74 Karmen units
Retained BSP (5 mg/kg): 18.4 ± 1.3 µg/mL

NC(=O)C1CC[N+](=c2sccs2)CC1.[I-] (stereo not shown) [Compound No. 58, 1-(1,3-dithiol-2-ylidene)-4-carbamoylpiperidinium iodide]
GPT activity (1 mg/kg): 3266 ± 245 Karmen units
Retained BSP (1 mg/kg): 98.1 ± 21.0 µg/mL
GPT activity (5 mg/kg): 1151 ± 181 Karmen units
Retained BSP (5 mg/kg): 41.5 ± 7.1 µg/mL

CCCCCCC1CCC[N+]1=c1sccs1.[O-][Cl+3]([O-])([O-])[O-] (stereo not shown) [Compound No. 45, 1-(1,3-dithiol-2-ylidene)-2-(n-hexyl)pyrrolidinium perchlorate]
GPT activity (1 mg/kg): 4264 ± 521 Karmen units
Retained BSP (1 mg/kg): 110 ± 20.5 µg/mL
GPT activity (5 mg/kg): 1072 ± 282 Karmen units
Retained BSP (5 mg/kg): 76 ± 6.3 µg/mL

NC(=O)C1CCC[N+]1=c1sccs1.[I-] (stereo not shown) [Compound No. 44, 1-(1,3-dithiol-2-ylidene)-2-carbamoylpyrrolidinium iodide]
GPT activity (1 mg/kg): 6311 ± 867 Karmen units
Retained BSP (1 mg/kg): 134.7 ± 21.7 µg/mL
GPT activity (5 mg/kg): 5213 ± 716 Karmen units
Retained BSP (5 mg/kg): 119.4 ± 11.8 µg/mL

C[N+](=c1sccs1)C1CCCCC1.[O-][Cl+3]([O-])([O-])[O-] [Compound No. 7, N-(1,3-dithiol-2-ylidene)-N-methyl-N-cyclohexylammonium perchlorate]
GPT activity (1 mg/kg): 4920 ± 670 Karmen units
Retained BSP (1 mg/kg): 120.1 ± 17.1 µg/mL
GPT activity (5 mg/kg): 1400 ± 77 Karmen units
Retained BSP (5 mg/kg): 57.1 ± 5.1 µg/mL

C[N+](CCC#N)=c1sccs1.[I-] [Compound No. 4, N-(1,3-dithiol-2-ylidene)-N-methyl-N-(2-cyanoethyl)ammonium iodide]
GPT activity (1 mg/kg): 2535 ± 158 Karmen units
Retained BSP (1 mg/kg): 42.6 ± 2.3 µg/mL
GPT activity (5 mg/kg): 543 ± 92 Karmen units
Retained BSP (5 mg/kg): 29.4 ± 11.1 µg/mL

C[N+](Cc1ccccc1)=c1sccs1.[O-][Cl+3]([O-])([O-])[O-] [Compound No. 10, N-(1,3-dithiol-2-ylidene)-N-methyl-N-benzylammonium perchlorate]
GPT activity (1 mg/kg): 1865 ± 106 Karmen units
Retained BSP (1 mg/kg): 29.5 ± 6.0 µg/mL
GPT activity (5 mg/kg): 108 ± 27 Karmen units
Retained BSP (5 mg/kg): 16.6 ± 1.6 µg/mL
